Experimental data taken from patent US20180044343A1, “BICYCLIC IMIDAZOLO DERIVATIVE” (Sumitomo Dainippon Pharma Co., Ltd., priority 2015, published 2018).

Columns and labels:
Assay type in all cases: biochemical
PDE1B = PDE1B (Homo sapiens, UniProt Q01064); test: In vitro HTRF PDE1 inhibition assay (PDE1B); conditions: in vitro PDE1B HTRF Assay; read-out: IC50
PDE1A3 = PDE1A3 (Homo sapiens, UniProt P54750); test: In vitro HTRF PDE1 inhibition assay (PDE1A3); conditions: PDE1A3, 100 nM cyclic GMP
Text: (§1) An exemplary procedure for the in vitro Homogenous Time Resolved Fluorescence assay, which can be used to determine the inhibitory action of compounds of the present invention toward PDE1 or its isoforms, follows.
(§2) The HTRF PDE1 assay utilized the HTRF (Homogenous Time Resolved Fluorescence) technology, which is based on the competition between unlabeled cyclic nucleotide and cyclic nucleotide labeled with XL665 for the binding to cyclic nucleotide-specific antibody labeled with cryptate. The HTRF signal is thus inversely proportional to the concentration of cyclic nucleotide being measured. Since phosphodiesterases break down cyclic nucleotides, the HTRF signal was used to determine PDE activity.
(§3) The Cisbio cGMP HTRF assay kit (Cat no: 62GM2PEC) was utilized. Cyclic GMP was diluted to 200 nM in HTRF assay buffer (1 mM CaCl2, 10 mM MgCl2, 10 mM Tris-HCl, 0.1% BSA, pH 7.4). 10 μl of compound or DMSO was diluted in 200 nM cyclic GMP solution and added to wells of a 96 well white plate to give 100 nM cyclic GMP in 1% DMSO final concentration. PDE (1A3, 1B or 1C) was diluted to 2× working concentration in HTRF assay buffer with 2 μg/ml Calmodulin, and 10 μl was added to initiate the reaction. The plate was then incubated for 45 minutes at 27° C. d2-Labelled cyclic GMP and anti-cGMP cryptate were diluted in 50 mM phosphate buffer, 0.8 M KF, 1% Triton X100, 0.2% BSA, pH 7.0. Following incubation 10 μl d2-cGMP, then 10 μl anti cGMP cryptate were added to each well and the plate was incubated for 60 minutes at room temperature. The plate was then read on Perkin Elmer EnVision at 2 different FRET readings ex/em 340 nm/665 nm and 340 nm/615 nm.
(§4) Compounds having an IC50 of <1 μM are denoted as +++. Compounds having an IC50 of 1-10 μM are denoted as ++. Compounds having an IC50 of 10-100 μM are denoted as +.

PDE1C = PDE1C (Homo sapiens, UniProt Q14123); test: In vitro HTRF PDE1 inhibition assay (PDE1C); conditions: 100 nM cyclic GMP
Text: as §1, §2, §3, §4

PDE1B, sequence (Q01064 whole entry): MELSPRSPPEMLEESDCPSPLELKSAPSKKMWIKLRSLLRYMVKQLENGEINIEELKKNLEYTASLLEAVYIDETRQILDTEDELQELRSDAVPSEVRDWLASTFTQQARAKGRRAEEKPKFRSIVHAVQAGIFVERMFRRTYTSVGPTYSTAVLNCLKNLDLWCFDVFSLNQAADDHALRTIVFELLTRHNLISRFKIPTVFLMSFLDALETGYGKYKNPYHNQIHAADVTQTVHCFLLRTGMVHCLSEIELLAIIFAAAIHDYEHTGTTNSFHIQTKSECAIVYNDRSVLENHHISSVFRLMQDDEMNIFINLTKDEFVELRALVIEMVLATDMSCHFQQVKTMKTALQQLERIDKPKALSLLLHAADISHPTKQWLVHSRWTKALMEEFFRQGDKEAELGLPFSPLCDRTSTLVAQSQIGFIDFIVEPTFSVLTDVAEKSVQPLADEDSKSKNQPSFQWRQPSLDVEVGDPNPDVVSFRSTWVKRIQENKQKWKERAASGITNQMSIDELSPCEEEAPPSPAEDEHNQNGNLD

Compound	IC50 (PDE1B) [nM]	IC50 (PDE1A3) [µM]	IC50 (PDE1C) [µM]
CCO[C@H]1CC[C@@H](COc2nn3c(C4CCOCC4)ncc3c(=O)n2C)CC1 [Example 247]	< 1000	< 1	< 1
CCO[C@H]1CC[C@H](COc2nn3c(C4CCOCC4)ncc3c(=O)n2CC)CC1 [Example 249]	< 1000	< 1	< 1
CCn1c(OC[C@H]2CC[C@H](C(F)(F)F)CC2)nn2c(C3CCOCC3)ncc2c1=O [Example 251]	< 1000	< 1	< 1
COc1nn2c(C3CCOCC3)ncc2c(=O)n1C[C@H]1CC[C@H](OC)CC1 [Example 253]	< 1000	< 1	< 1
Cn1c(OC2CCCCC2)nn2c(C3CCOCC3)ncc2c1=O [Example 255, 2-(cyclohexyloxy)-3-methyl-7-(tetrahydro-2H-pyran-4-yl)imidazo[5,1-f][1,2,4]triazin-4(3H)-one]	< 1000	< 1	< 1
CCOC[C@H]1CC[C@H](Oc2nn3c(C4CCOCC4)ncc3c(=O)n2CC)CC1 [Example 258]	< 1000	< 1	< 1
COc1nn2c(C3CCOCC3)ncc2c(=O)n1Cc1ccncc1 [Example 281]	1000 to 10000		
Cn1c(OCCC2(C(F)(F)F)CC2)nn2c(C3CCOCC3)ncc2c1=O [Example 282]	< 1000		
CCn1c(OCCC2(C(F)(F)F)CC2)nn2c(C3CCOCC3)ncc2c1=O [Example 283]	< 1000	< 1	< 1
Cn1c(OCC2CCC(OC(F)(F)F)CC2)nn2c(C3CCOCC3)ncc2c1=O (stereo not drawn) [Example 284]	< 1000		
CCn1c(OCC2CCC(OC(F)(F)F)CC2)nn2c(C3CCOCC3)ncc2c1=O (stereo not drawn) [Example 285]	< 1000		
COC[C@H]1CC[C@H](COc2nn3c(C4CCOCC4)ncc3c(=O)n2C)CC1 [Example 286]	< 1000		
CCn1c(OC[C@H]2CC[C@H](COC)CC2)nn2c(C3CCOCC3)ncc2c1=O [Example 287]	< 1000		
CCOC[C@H]1CC[C@H](COc2nn3c(C4CCOCC4)ncc3c(=O)n2CC)CC1 [Example 289]	< 1000		
Cn1c(OC[C@H]2CC[C@H](CO)CC2)nn2c(C3CCOCC3)ncc2c1=O [Example 290]	< 1000		
CCO[C@H]1CC[C@H](COc2nn3c(C4CCOCC4)ncc3c(=O)n2C2CC2)CC1 [Example 291]	< 1000		
Cn1c(OCc2ccc(C(F)(F)F)cc2)nn2c(C3CCOCC3)ncc2c1=O [Example 292]	< 1000		
Cn1c(OCc2ccc(OC(F)(F)F)cc2)nn2c(C3CCOCC3)ncc2c1=O [Example 293]	< 1000		
Cn1c(OCC2(C(F)(F)F)CCCC2)nn2c(C3CCOCC3)ncc2c1=O [Example 295]	< 1000		
CCn1c(OCC2(C(F)(F)F)CCCC2)nn2c(C3CCOCC3)ncc2c1=O [Example 296]	< 1000		
Cn1c(OCC2(C(F)(F)F)CCCCC2)nn2c(C3CCOCC3)ncc2c1=O [Example 297]	< 1000		
Cn1c(OCC23CC4CC(CC(C4)C2)C3)nn2c(C3CCOCC3)ncc2c1=O [Example 298]	< 1000		
Cn1c(OC2CCCC2)nn2c(C3CCOCC3)ncc2c1=O [Example 299]	< 1000		

Results, then the molecule that gave them:

IC50 (PDE1B) [nM]	IC50 (PDE1A3) [µM]	IC50 (PDE1C) [µM]	Compound
< 1000			CCn1c(OC2CCCC2)nn2c(C3CCOCC3)ncc2c1=O [Example 300]
< 1000			Cn1c(O[C@H]2CC[C@H](O)CC2)nn2c(C3CCOCC3)ncc2c1=O [Example 301]
< 1000	< 1	< 1	Cn1c(OC2CCC(C)(C)CC2)nn2c(C3CCOCC3)ncc2c1=O [Example 302]
< 1000			Cn1c(OC2CCC(F)(F)CC2)nn2c(C3CCOCC3)ncc2c1=O [Example 303]
< 1000	< 1	< 1	CCn1c(OC2CCC(F)(F)CC2)nn2c(C3CCOCC3)ncc2c1=O [Example 304, 2-[(4,4-difluorocyclohexyl)oxy]-3-ethyl-7-(tetrahydro-2H-pyran-4-yl)imidazo[5,1-f][1,2,4]triazin-4(3H)-one]
< 1000			Cn1c(O[C@H]2CC[C@H](C(F)(F)F)CC2)nn2c(C3CCOCC3)ncc2c1=O [Example 305, 3-methyl-7-(tetrahydro-2H-pyran-4-yl)-2-{[trans-4-(trifluoromethyl)cyclohexyl]oxy}-imidazo[5,1-f][1,2,4]triazin-4(3H)-one]
< 1000	< 1	< 1	CCn1c(O[C@H]2CC[C@H](C(F)(F)F)CC2)nn2c(C3CCOCC3)ncc2c1=O [Example 306]
< 1000			Cn1c(O[C@H]2CC[C@@H](C(F)(F)F)CC2)nn2c(C3CCOCC3)ncc2c1=O [Example 307]
< 1000			CCn1c(O[C@H]2CC[C@@H](C(F)(F)F)CC2)nn2c(C3CCOCC3)ncc2c1=O [Example 308]
< 1000	< 1	1 to 10	CO[C@H]1CC[C@H](Oc2nn3c(C4CCOCC4)ncc3c(=O)n2C)CC1 [Example 309]
< 1000	< 1	< 1	CCn1c(O[C@H]2CC[C@H](OC)CC2)nn2c(C3CCOCC3)ncc2c1=O [Example 310]
< 1000			CO[C@H]1CC[C@H](Oc2nn3c(C4CCOCC4)ncc3c(=O)n2C(C)C)CC1 [Example 311]
< 1000	< 1	< 1	CO[C@H]1CC[C@@H](Oc2nn3c(C4CCOCC4)ncc3c(=O)n2C)CC1 [Example 312]
< 1000	< 1	< 1	CCn1c(O[C@H]2CC[C@@H](OC)CC2)nn2c(C3CCOCC3)ncc2c1=O [Example 313]
< 1000			CCO[C@H]1CC[C@H](Oc2nn3c(C4CCOCC4)ncc3c(=O)n2C)CC1 [Example 314]
< 1000	< 1	< 1	CCO[C@H]1CC[C@H](Oc2nn3c(C4CCOCC4)ncc3c(=O)n2CC)CC1 [Example 315]
< 1000			COC[C@H]1CC[C@H](Oc2nn3c(C4CCOCC4)ncc3c(=O)n2C)CC1 [Example 316]
< 1000	< 1	< 1	COC[C@H]1CC[C@@H](Oc2nn3c(C4CCOCC4)ncc3c(=O)n2C)CC1 [Example 318]
< 1000			CCn1c(O[C@H]2CC[C@@H](COC)CC2)nn2c(C3CCOCC3)ncc2c1=O [Example 319]
< 1000			CCOC[C@H]1CC[C@@H](Oc2nn3c(C4CCOCC4)ncc3c(=O)n2C)CC1 [Example 320]
< 1000			CCOC[C@H]1CC[C@@H](Oc2nn3c(C4CCOCC4)ncc3c(=O)n2CC)CC1 [Example 321]
1000 to 10000			Cn1c(OC[C@H]2CC[C@H](C(F)(F)F)CC2)nn2c(C3(O)CCOCC3)ncc2c1=O [Example 326, 7-(4-hydroxytetrahydro-2H-pyran-4-yl)-3-methyl-2-{[trans-4-(trifluoromethyl)cyclohexyl]-methoxy}imidazo[5,1-f][1,2,4]triazin-4(3H)-one]
1000 to 10000			Cn1c(OC[C@H]2CC[C@H](C(F)(F)F)CC2)nn2c(C3(O)CCCCC3)ncc2c1=O [Example 327, 7-(1-Hydroxycyclohexyl)-3-methyl-2-{[trans-4-(trifluoromethyl)cyclohexyl]-methoxy}imidazo[5,1-f][1,2,4]triazin-4(3H)-one]
< 1000			Cn1c(OC[C@H]2CC[C@H](C(F)(F)F)CC2)nn2c(C3=CCOCC3)ncc2c1=O [Example 328, 7-(3,6-dihydro-2H-pyran-4-yl)-3-methyl-2-{[trans-4-(trifluoromethyl)cyclohexyl]methoxy}-imidazo[5,1-f][1,2,4]triazin-4(3H)-one]
1000 to 10000			Cn1c(OC[C@H]2CC[C@H](C(F)(F)F)CC2)nn2c(C3=CCCCC3)ncc2c1=O [Example 329, 7-(Cyclohex-1-en-1-yl)-3-methyl-2-{[trans-4-(trifluoromethyl)cyclohexyl]-methoxy}imidazo[5,1-f][1,2,4]triazin-4(3H)-one]
10000 to 100000			CCn1c(OCC2CCC(F)(F)CC2)nn2c(N3CCCC3)ncc2c1=O [Example 332, 2-[(4,4-Difluorocyclohexyl)methoxy]-3-ethyl-7-(pyrrolidin-1-yl)imidazo[5,1-f][1,2,4]triazin-4(3H)-one]
